Patent US9365621B2, “Method for preventing neoplastic transformation by inhibition of retinoblastoma protein inactivation” (The Regents of the University of California, priority 2012, dated 2016)
No end group written: not given here.

Target: T1, human Rb construct (residues 53-787) binding Human E2F1 transactivation domain (Homo sapiens, UniProt P06400, DEL245-267/DEL582-642/S780A)
T1 construct: a human Rb construct (residues 53-787, delta245-267, delta582-642, S780A); made in house; host or cells: E. coli
T1 sequence (P06400 with tags, fused parts or gaps DEL245-267/DEL582-642/S780A): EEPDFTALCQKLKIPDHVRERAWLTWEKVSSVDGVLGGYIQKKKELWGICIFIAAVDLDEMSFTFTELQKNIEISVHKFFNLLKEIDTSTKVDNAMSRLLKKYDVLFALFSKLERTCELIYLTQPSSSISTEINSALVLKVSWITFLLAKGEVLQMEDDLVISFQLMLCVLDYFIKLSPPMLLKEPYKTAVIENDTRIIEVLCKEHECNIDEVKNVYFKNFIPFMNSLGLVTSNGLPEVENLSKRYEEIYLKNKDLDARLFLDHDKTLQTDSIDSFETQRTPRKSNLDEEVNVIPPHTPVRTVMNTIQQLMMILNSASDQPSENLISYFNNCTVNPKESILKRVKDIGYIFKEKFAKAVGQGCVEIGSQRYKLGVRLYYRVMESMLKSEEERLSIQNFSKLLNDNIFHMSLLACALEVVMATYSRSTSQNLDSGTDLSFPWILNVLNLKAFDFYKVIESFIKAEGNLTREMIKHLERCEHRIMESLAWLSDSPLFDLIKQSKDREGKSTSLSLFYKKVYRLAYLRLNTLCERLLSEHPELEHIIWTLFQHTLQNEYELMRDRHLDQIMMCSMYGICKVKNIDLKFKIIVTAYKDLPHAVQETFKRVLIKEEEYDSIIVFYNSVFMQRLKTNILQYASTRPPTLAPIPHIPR
Experiment: Isothermal titration calorimetry of E2F binding to Rb (Rb activity)
Settings: in vitro, phosphorylated Rb
Source text: The inventors have developed an assay for measuring the degree of binding between Rb and E2F. Rb inactivation corresponds to E2F binding inhibition. If you can prevent E2F binding to Rb, then you inactivate Rb, its tumor suppressing action decreases and the cell cycle continues from G1 to S and unregulated cell division occurs. Inactivation occurs upon Rb phosphorylation by Cdk. The inventors have discovered that in the presence of ‘LxCxE’ peptide, E2F inhibition is prevented upon phosphorylation.
The […] peptide was made synthetically using standard peptide synthesis. Human E2F1 transactivation domain (residues […]) and a human Rb construct (residues 53-787, delta245-267, delta582-642, S780A) were produced recombinantly in E. coli and purified to homogeneity. Rb was phosphorylated with recombinant Cdk as described.
Rb activity, defined as its ability to bind E2F, was assayed by isothermal titration calorimetry to measure quantitatively E2F binding affinity. About 50 micromolar (μm) Rb was used in the calorimetry cell and E2F was titrated in at a concentration of ˜1 mM. Standard protocols were used to determine Kd. In the experiment with the […] peptide, the peptide was first added to the cell before E2F to saturate Rb.

“DLYCYEQLN [DLYCYEQLN peptide, DLYCYEQLN]” was tested, and the “inhibition of Rb inactivation (effect of phosphorylation on E2F-Rb binding)” value was “inhibits the weakening effect of phosphorylation on E2F-Rb binding”.
